Earlier results on one compound are cited in patent publication US20230364135A1, “GUT-SELECTIVE SEQUESTERING AGENTS FOR THE TREATMENT AND PREVENTION OF AUTISM AND RELATED DISORDERS” (Axial Biotherapeutics, Inc., priority 2017, published 2023).

This data set deals with naïve, wild-type mice. As to conditions: single bolus injection intraperitoneally.

On to `CCc1ccc(OS(=O)(=O)[O-])cc1.[K+]` [4-EPS, 4-ethylphenylsulfate], for which the “core symptoms of autism spectrum disorder” value was “did not engender any core symptoms of autism spectrum disorder” and the symptoms of anxiety entry is listed as “engendered symptoms of anxiety”.
